Legend:
[1] = tested on: ENR+CD organoids (ISC to Paneth cell differentiation); assay: Primary screen: CCh-stimulated lysozyme secretion LYZ.S, 2.5-D 384-well ENR+CD organoid differentiation; assay type: cell-based, mouse; details: primary screen
Description: (§1) High-throughput screening.

[2] = tested on: ENR+CD organoids; assay: Primary screen: ATP (CellTiter-Glo 3D, CTG) cell number/viability, 2.5-D 384-well ENR+CD organoids; details: primary screen; for Z.CTG: standard z score;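 on all read-outs here: compounds given at plating and again on day 3 over a 6-day differentiation from ENR+CV stem-cell-enriched precursors, ATP measured on day 6, plate median as control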
[3] = tested on: ENR+CD organoids (ISC to Paneth cell differentiation); assay: Primary screen: basal (non-stimulated) lysozyme secretion LYZ.NS, 2.5-D 384-well ENR+CD organoid differentiation; assay type: cell-based, mouse
Description: as §1

[4] = dose 0.08 uM, FC vs plate median
[5] = dose 0.40 uM, FC vs plate median
[6] = dose 2.00 uM, FC vs plate median
[7] = dose 10.00 uM, FC vs plate median
[8] = primary screen, standard z score, dose 0.08 uM
[9] = primary screen, standard z score, dose 0.40 uM
[10] = primary screen, standard z score, dose 2.00 uM
[11] = primary screen, standard z score, dose 10.00 uM

SMILES | Dose.FC.LYZ.S ([1]; dose 0.08 uM) [log2 fold change] | Dose.FC.LYZ.S ([1]; dose 0.40 uM) [log2 fold change] | Dose.FC.LYZ.S ([1]; dose 2.00 uM) [log2 fold change] | Dose.FC.LYZ.S ([1]; dose 10.00 uM) [log2 fold change] | Dose.FC.CTG ([2]; dose 0.08 uM) [log2 fold change] | Z.CTG (standard z score) ([2]; dose 0.08 uM) | Dose.FC.CTG ([2]; dose 0.40 uM) [log2 fold change] | Z.CTG (standard z score) ([2]; dose 0.40 uM) | Dose.FC.CTG ([2]; dose 2.00 uM) [log2 fold change] | Z.CTG (standard z score) ([2]; dose 2.00 uM) | Dose.FC.CTG ([2]; dose 10.00 uM) [log2 fold change] | Z.CTG (standard z score) ([2]; dose 10.00 uM) | Dose.FC.LYZ.NS ([3]; primary screen, dose 0.08 uM) [log2 fold change] | Z.LYZ.NS (standard z score) ([3]; primary screen, dose 0.08 uM) | Dose.FC.LYZ.NS ([3]; primary screen, dose 0.40 uM) [log2 fold change] | Z.LYZ.NS (standard z score) ([3]; primary screen, dose 0.40 uM) | Dose.FC.LYZ.NS ([3]; primary screen, dose 2.00 uM) [log2 fold change] | Z.LYZ.NS (standard z score) ([3]; primary screen, dose 2.00 uM) | Dose.FC.LYZ.NS ([3]; primary screen, dose 10.00 uM) [log2 fold change] | Z.LYZ.NS (standard z score) ([3]; primary screen, dose 10.00 uM) | further results
O=C(Oc1cc(S(=O)(=O)c2ccccc2)ccc1[N+](=O)[O-])c1ccc(Cl)cc1 [BTB06584] | 0.222 | 0.042 | 0.039 | 0.019 | 0.275 | 0.657 | 0.288 | 0.688 | −0.180 | −0.431 | 0.199 | 0.475 | 0.091 | 0.795 | 0.025 | 0.214 | 0.024 | 0.206 | −0.031 | −0.268 | –
O=C(Nc1ccccc1)N1CCN(c2nc(-c3ccccc3)ns2)CC1 [JNJ-1661010] | – | – | – | – | – | −0.225 | – | −0.625 | – | −0.131 | – | −0.346 | – | 1.066 | – | 0.653 | – | 0.897 | – | 0.406 | Dose.FC.LYZ.S (log2 fold change) ([1]; dose 0.08 uM): 0.135; Dose.FC.LYZ.S (log2 fold change) ([1]; dose 0.40 uM): 0.041; Dose.FC.LYZ.S (log2 fold change) ([1]; dose 2.00 uM): −0.063; Dose.FC.LYZ.S (log2 fold change) ([1]; dose 10.00 uM): −0.068; Dose.FC.CTG (log2 fold change) ([2]; dose 0.08 uM): −0.094; Dose.FC.CTG (log2 fold change) ([2]; dose 0.40 uM): −0.262; Dose.FC.CTG (log2 fold change) ([2]; dose 2.00 uM): −0.055; Dose.FC.CTG (log2 fold change) ([2]; dose 10.00 uM): −0.145; Dose.FC.LYZ.NS (log2 fold change) ([3]; primary screen, dose 0.08 uM): 0.122; Dose.FC.LYZ.NS (log2 fold change) ([3]; primary screen, dose 0.40 uM): 0.075; Dose.FC.LYZ.NS (log2 fold change) ([3]; primary screen, dose 2.00 uM): 0.103; Dose.FC.LYZ.NS (log2 fold change) ([3]; primary screen, dose 10.00 uM): 0.047
CCn1c(=O)c2c(nc(/C=C/c3ccc(OC)c(OC)c3)n2C)n(CC)c1=O [Istradefylline] | – | – | – | – | – | – | – | – | – | – | – | – | – | −0.131 | – | −0.304 | – | −0.022 | – | −0.353 | Dose.FC.LYZ.S (log2 fold change) ([1]; dose 0.08 uM): −0.029; Dose.FC.LYZ.S (log2 fold change) ([1]; dose 0.40 uM): −0.087; Dose.FC.LYZ.S (log2 fold change) ([1]; dose 2.00 uM): −0.096; Dose.FC.LYZ.S (log2 fold change) ([1]; dose 10.00 uM): −0.057; Dose.FC.CTG (log2 fold change) ([2]; dose 0.08 uM): −0.045; Dose.FC.CTG (log2 fold change) ([2]; dose 0.40 uM): 0.066; Dose.FC.CTG (log2 fold change) ([2]; dose 2.00 uM): −0.157; Dose.FC.CTG (log2 fold change) ([2]; dose 10.00 uM): −0.038; Dose.FC.LYZ.NS (log2 fold change) ([3]; primary screen, dose 0.08 uM): −0.015; Dose.FC.LYZ.NS (log2 fold change) ([3]; primary screen, dose 0.40 uM): −0.035; Dose.FC.LYZ.NS (log2 fold change) ([3]; primary screen, dose 2.00 uM): −0.003; Dose.FC.LYZ.NS (log2 fold change) ([3]; primary screen, dose 10.00 uM): −0.041
CC(C)CC(=O)Nc1[nH]nc2c1CN(C(=O)C1CCN(C)CC1)C2(C)C [PHA-793887] | – | – | – | – | – | – | – | – | – | – | – | – | – | – | – | – | – | – | – | – | Dose.FC.LYZ.S [1, 4]: 0.046 log2 fold change; Dose.FC.LYZ.S [1, 5]: 0.100 log2 fold change; Dose.FC.LYZ.S [1, 6]: −0.081 log2 fold change; Dose.FC.LYZ.S [1, 7]: −0.292 log2 fold change; Dose.FC.CTG [2, 4]: 0.113 log2 fold change; Dose.FC.CTG [2, 5]: 0.132 log2 fold change; Dose.FC.CTG [2, 6]: −0.144 log2 fold change; Dose.FC.CTG [2, 7]: −0.856 log2 fold change; Z.LYZ.NS ([3]; primary screen, dose 0.08 uM, standard z score): 0.275; Z.LYZ.NS ([3]; primary screen, dose 0.40 uM, standard z score): 0.085; Z.LYZ.NS ([3]; primary screen, dose 2.00 uM, standard z score): −1.187; Z.LYZ.NS ([3]; primary screen, dose 10.00 uM, standard z score): −2.324; Dose.FC.LYZ.NS ([3]; primary screen; dose 0.08 uM; FC vs plate median): 0.032 log2 fold change; Dose.FC.LYZ.NS ([3]; primary screen; dose 0.40 uM; FC vs plate median): 0.010 log2 fold change; Dose.FC.LYZ.NS ([3]; primary screen; dose 2.00 uM; FC vs plate median): −0.136 log2 fold change; Dose.FC.LYZ.NS ([3]; primary screen; dose 10.00 uM; FC vs plate median): −0.267 log2 fold change
c1ccc(CNc2nc(NCc3ccccc3)c3ccccc3n2)cc1 [DBeQ] | 0.045 | 0.210 | −0.103 | −0.423 | 0.119 | – | −0.013 | – | 0.004 | – | −1.133 | – | 0.097 | – | 0.064 | – | −0.048 | – | −0.296 | – | Z.CTG ([2]; dose 0.08 uM): 0.285; Z.CTG ([2]; dose 0.40 uM): −0.031; Z.CTG ([2]; dose 2.00 uM): 0.010; Z.CTG ([2]; dose 10.00 uM): −2.706; Z.LYZ.NS [3, 8]: 0.844; Z.LYZ.NS [3, 9]: 0.558; Z.LYZ.NS [3, 10]: −0.414; Z.LYZ.NS [3, 11]: −2.577
CCCCCCCCc1ccc(CCC(N)(CO)CO)cc1.Cl [Fingolimod (FTY720) HCl] | −0.046 | 0.077 | −0.060 | −0.362 | −0.080 | – | 0.103 | – | −0.468 | – | −1.304 | – | −0.054 | – | 0.071 | – | 0.021 | – | −0.225 | – | Z.CTG ([2]; dose 0.08 uM): −0.191; Z.CTG ([2]; dose 0.40 uM): 0.245; Z.CTG ([2]; dose 2.00 uM): −1.119; Z.CTG ([2]; dose 10.00 uM): −3.116; Z.LYZ.NS [3, 8]: −0.471; Z.LYZ.NS [3, 9]: 0.616; Z.LYZ.NS [3, 10]: 0.186; Z.LYZ.NS [3, 11]: −1.961
CCn1c2ccccc2c2cc(Nc3ccnc(NCCCN4CCOCC4)n3)ccc21 [EHop-016] | 0.091 | 0.012 | −0.011 | −0.299 | 0.081 | – | 0.062 | – | 0.088 | – | −0.757 | – | 0.177 | – | 0.035 | – | 0.029 | – | −0.203 | – | Z.CTG ([2]; dose 0.08 uM): 0.193; Z.CTG ([2]; dose 0.40 uM): 0.147; Z.CTG ([2]; dose 2.00 uM): 0.211; Z.CTG ([2]; dose 10.00 uM): −1.808; Z.LYZ.NS [3, 8]: 1.537; Z.LYZ.NS [3, 9]: 0.302; Z.LYZ.NS [3, 10]: 0.252; Z.LYZ.NS [3, 11]: −1.769
COC1CCN(C(=O)c2cc(Cc3n[nH]c(=O)c4ccccc34)ccc2F)CC1 [AZD2461] | 0.097 | 0.015 | −0.100 | −0.224 | 0.073 | 0.174 | −0.040 | −0.095 | −0.232 | −0.555 | −0.336 | −0.803 | 0.038 | 0.334 | −0.038 | −0.327 | −0.074 | −0.641 | −0.172 | −1.497 | –

Source: patent US20220323406A1, “METHODS AND COMPOSITIONS FOR DIFFERENTIATING STEM CELLS” (Massachusetts Institute of Technology, priority 2019, published 2022)
